In article PMC7217150, “Synthesis, Modification, and Biological Evaluation of a Library of Novel Water‐Soluble Thiopyridone‐Based Organometallic Complexes and Their Unexpected (Biological) Behavior” (Chemistry (Weinheim an Der Bergstrasse, Germany), 2020):
Where two headings read alike, the source gives them in different places.

What was measured:
[1] = pH 7.2
Method: Stock solutions containing the desired complex in DMSO (5 mM) were diluted with phosphate buffer (pH 7.2) to a final concentration of […] compound in 1 % DMSO/20 mM buffer and directly analyzed by four different isocratic UHPLC runs (Δ=5 %). The lipophilicity parameters logkw and lipophilicity indices φ0 were calculated according to literature.7, 37

SW480 cells = details: ICP‐MS, 2 h exposure
A549 [2] = assay: MTT cytotoxicity assay, monolayer culture; assay type: cell-based, human; details: exposure time 96 h, means ± SDs
Source text: (§1) A549 (non‐small cell lung carcinoma), SW480 and HCT‐116 (both colon carcinoma) were kindly provided by Brigitte Marian, Institute of Cancer Research, Department of Medicine I, Medical University of Vienna, Austria. The cell line CH1/PA‐1 (ovarian teratocarcinoma) was kindly provided by Lloyd R. Kelland (CRC Centre for Cancer Therapeutics, Institute of Cancer Research, Sutton, UK). All cell culture media (including supplements) and reagents were obtained from Sigma–Aldrich, and all plasticware from StarLab, unless indicated otherwise.

SW480 [3] = assay: MTT cytotoxicity assay, monolayer culture; assay type: cell-based, human
Source text: as §1

CH1/PA‐1 [4] = assay: MTT cytotoxicity assay, monolayer culture; assay type: cell-based, human; details: CH1/PA‐1, MTT assay, exposure time 96 h, means ± SDs
Source text: as §1

A549 [5] = details: A549 multicellular spheroids, 96 h drug exposure
Method: (§2) A549, CH1/PA‐1 and SW480 cells were grown in MEM supplemented with 10 % fetal calf serum (FCS; from Biowest), 1 mM sodium pyruvate, 4 mM L‐glutamine and 1 % v/v nonessential amino acids (from 100×solution) and L‐glutamine. HCT‐116 cells were maintained in McCoy's 5a medium supplemented with 10 % FCS and L‐glutamine. Adherent monolayer cultures were grown in 75 cm^2 flasks. For spheroid culture, A549, CH1/PA‐1 and HCT‐116 cells were harvested from culture flasks by trypsinization, resuspended in their respective supplemented medium and seeded in ultra‐low attachment round‐bottom 96‐well plates (Corning Costar) at a density of 500 viable cells per well. Plates were incubated for 96 h to allow spheroid formation prior to use for the tests. All cultures were incubated in a humidified incubator at 37 °C with 5 % CO2.
(§3) Cytotoxicity in multicellular spheroids was determined by the fluorimetric resazurin assay. […] After incubation for 96 h, 20 μL of a 440 μM resazurin sodium salt solution in PBS were added to each well, and the plates were incubated for further 16 h. Fluorescence was measured with a Synergy HT reader (BioTek) with an excitation wavelength of 530 nm and emission wavelength of 590 nm. For both assays, at least three independent experiments (or two in case of poor activity) were performed, each with triplicates per concentration level, and the 50 % inhibitory concentrations (IC50) relative to untreated controls were interpolated from concentration‐effect curves.

CH1/PA‐1 [6] = details: CH1/PA‐1 multicellular spheroids, 96 h drug exposure
Method: as §2, §3

HCT‐116 = HCT‐116 multicellular spheroids, 96 h drug exposure
Method: as §2, §3

SW480 [7] = assay: Cell cycle distribution, flow cytometry with propidium iodide; assay type: cell-based, human; details: for Cell cycle distribution G1, % / Cell cycle distribution G2/M, % / Cell cycle distribution S, %: 24 h, mean ± SD; for Relative change in cell cycle distribution G1, % / Relative change in cell cycle distribution G2/M, % / Relative change in cell cycle distribution S, %: difference to untreated control; for decrease in G1 phase: SW480 cells
Method: (§4) The influence of two ligands, as well as seven complexes on cell cycle distribution was tested in two of the cancer cell lines (SW480, CH1/PA‐1) by means of flow cytometry. The cell cycle distribution (G1, S, G2/M phase in %; Table S37) was investigated upon DNA staining with propidium iodide.
(§5) CH1/PA‐1 and SW480 cells were harvested by trypsinization, 8×10^4 and 1.2×10^5 cells per well were seeded into 12‐well plates, respectively. The cells were allowed to attach and resume proliferation for 24 h after the seeding. […] After continuous exposure for 24 h at 37 °C and under 5 % CO2, the cells were harvested by trypsinization and centrifuged at 300 g for 3 min. The cells were washed with PBS (1 mL) and resuspended in propidium iodine (PI) containing HSF buffer (600 μL; 0.1 % Triton X‐100, 0.1 % sodium citrate, 50 μg mL^−1 PI in PBS). After incubation overnight at 4 °C in the dark, 5×10^3 cells were measured by flow cytometry with a Millipore Guava easyCyte 8HT instrument (Luminex, USA). Data were evaluated by means of FlowJo software (Tree Star) using Watson Pragmatic algorithms.60 The fitting of the curve was chosen to keep the root mean square error between 1.0 and 2.0, alongside with good fitting visual model.

CH1/PA‐1 [8] = assay: as above; assay type: cell-based, human; details: for Cell cycle distribution G1, % / Cell cycle distribution G2/M, % / Cell cycle distribution S, %: 24 h, mean ± SD; for Relative change in cell cycle distribution G1, % / Relative change in cell cycle distribution G2/M, % / Relative change in cell cycle distribution S, %: difference to untreated control
Method: as §4, §5

[9] = tested on: human cancer cell lines CH1/PA‐1, SW480, A549; details: tested cancer cell lines
Method: Cytotoxicity of the compounds in monolayer cultures was determined by the colorimetric MTT assay (MTT=3‐(4,5‐dimethyl‐2‐thiazolyl)‐2,5‐diphenyl‐2H‐tetrazolium bromide). 1×10^3 CH1/PA‐1, 2×10^3 SW480 and 3×10^3 A549 cells were seeded in 100 μL supplemented MEM per well into 96‐well flat‐bottom microculture plates. […] After 96 h, the drug‐containing medium was replaced with 100 μL of RPMI 1640/MTT mixture [6 parts of RPMI 1640 medium (supplemented with 10 % heat‐inactivated fetal bovine serum and 4 mM L‐glutamine), 1 part of MTT solution in phosphate‐buffered saline (5 mg mL^−1)]. After incubation for 4 h, the mixture was replaced with 150 μL DMSO per well to dissolve the formazan product formed by viable cells. Optical densities at 550 nm (and at a reference wavelength of 690 nm) were measured with a microplate reader (ELx808, Bio‐Tek).

[10] = SW480, MTT assay, exposure time 96 h, means ± SDs

## Cc1c([O-])c(=S)ccn1C.Cc1ccc(C(C)C)cc1.[Cl-].[Ru+2] [Compound 3 a, Chlorido[1,2‐dimethyl‐3‐oxo‐κO‐pyridine‐4(1H)‐thionato‐κS](η^6‐p‐cymene)‐ruthenium(II)]
[1]
  φ0 (chromatographic lipophilicity index): 5.51
SW480 cells; 50 μM
  Cellular accumulation: 21±5 fg/cell
A549 [2]
  IC50: > 200 µM
SW480 [3]; [10]
  IC50: 55 ± 18 µM
SW480 [3]; SW480, as listed in Table 3
  IC50: 54.6 ± 18.4 µM
CH1/PA‐1 [4]
  IC50: > 200 µM
A549 [5]
  IC50: > 400 µM
CH1/PA‐1 [6]
  IC50: 267 ± 14 µM
HCT‐116
  IC50: > 400 µM

## CC1=C2[O][Rh+]([Cl])[S]=C2C=CN1C.Cc1c(C)c(C)[c-](C)c1C [Compound 5 a, Chlorido[1,2‐dimethyl‐3‐oxo‐κO‐pyridine‐4(1H)‐thionato‐κS](η^5‐1,2,3,4,5‐pentamethylcyclopentadienyl)rhodium(III)]
[1]
  φ0 (chromatographic lipophilicity index): 5.91
SW480 cells; 50 μM
  Cellular accumulation: 118±35 fg/cell
A549 [2]
  IC50: 117 ± 19 µM
SW480 [3]; [10]
  IC50: 5.5 ± 1.1 µM
SW480 [3]; SW480, as listed in Table 3
  IC50: 5.54 ± 1.07 µM
CH1/PA‐1 [4]
  IC50: 11 ± 2 µM
SW480 [7]; SW480, 5 µM
  Cell cycle distribution G1, %: 44 ± 1%
  Cell cycle distribution G2/M, %: 26 ± 2%
  Cell cycle distribution S, %: 30 ± 4%
  Relative change in cell cycle distribution G1, %: -4%
  Relative change in cell cycle distribution G2/M, %: 7%
  Relative change in cell cycle distribution S, %: -3%
SW480 [7]; SW480, 10 µM
  Cell cycle distribution G1, %: 38 ± 4%
  Cell cycle distribution G2/M, %: 20 ± 4%
  Cell cycle distribution S, %: 42 ± 1%
  Relative change in cell cycle distribution G1, %: -10%
  Relative change in cell cycle distribution G2/M, %: 1%
  Relative change in cell cycle distribution S, %: 9%
SW480 [7]; SW480, 20 µM
  Cell cycle distribution G1, %: 46 ± 3%
  Cell cycle distribution G2/M, %: 12 ± 1%
  Cell cycle distribution S, %: 42 ± 2%
  Relative change in cell cycle distribution G1, %: -2%
  Relative change in cell cycle distribution G2/M, %: -7%
  Relative change in cell cycle distribution S, %: 9%
SW480 [7]; 10 μM
  decrease in G1 phase: 10%
CH1/PA‐1 [8]; CH1/PA-1, 10 µM
  Cell cycle distribution G1, %: 28 ± 1%
  Cell cycle distribution G2/M, %: 28 ± 5%
  Cell cycle distribution S, %: 44 ± 5%
  Relative change in cell cycle distribution G1, %: -12%
  Relative change in cell cycle distribution G2/M, %: 4%
  Relative change in cell cycle distribution S, %: 8%
CH1/PA‐1 [8]; CH1/PA-1, 20 µM
  Cell cycle distribution G1, %: 27 ± 5%
  Cell cycle distribution G2/M, %: 32 ± 4%
  Cell cycle distribution S, %: 41 ± 5%
  Relative change in cell cycle distribution G1, %: -13%
  Relative change in cell cycle distribution G2/M, %: 8%
  Relative change in cell cycle distribution S, %: 5%
CH1/PA‐1 [8]; CH1/PA-1, 40 µM
  Cell cycle distribution G1, %: 26 ± 6%
  Cell cycle distribution G2/M, %: 31 ± 2%
  Cell cycle distribution S, %: 42 ± 1%
  Relative change in cell cycle distribution G1, %: -14%
  Relative change in cell cycle distribution G2/M, %: 7%
  Relative change in cell cycle distribution S, %: 6%
CH1/PA‐1 [8]; CH1/PA‐1 cells, 40 μM
  shift of cell cycle distribution towards S and G2/M phases in total: up to 14%
A549 [5]
  IC50: 367 ± 24 µM
CH1/PA‐1 [6]
  IC50: 144 ± 7 µM
HCT‐116
  IC50: 140 ± 20 µM

## Chlorido[1‐benzyl‐2‐methyl‐3‐oxo‐κO‐pyridine‐4(1H)‐thionato‐κS](η^5‐1,2,3,4,5‐pentamethylcyclopentadienyl)rhodium(III) [Compound 5 c]
[9]
  IC50 values, in words: high nanomolar range
SW480 cells; 20 μM
  Cellular accumulation: 855±66 fg/cell
A549 [2]
  IC50: 0.72 ± 0.11 µM
SW480 [3]; [10]
  IC50: 0.28 ± 0.02 µM
SW480 [3]; SW480, as listed in Table 3
  IC50: 0.28 ± 0.02 µM
CH1/PA‐1 [4]
  IC50: 0.37 ± 0.04 µM
SW480 [7]; SW480, 2.5 µM
  Cell cycle distribution G1, %: 44 ± 10%
  Cell cycle distribution G2/M, %: 20 ± 6%
  Cell cycle distribution S, %: 36 ± 1%
  Relative change in cell cycle distribution G1, %: -4%
  Relative change in cell cycle distribution G2/M, %: 1%
  Relative change in cell cycle distribution S, %: 3%
SW480 [7]; SW480, 5 µM
  Cell cycle distribution G1, %: 44 ± 5%
  Cell cycle distribution G2/M, %: 17 ± 4%
  Cell cycle distribution S, %: 39 ± 1%
  Relative change in cell cycle distribution G1, %: -4%
  Relative change in cell cycle distribution G2/M, %: -2%
  Relative change in cell cycle distribution S, %: 6%
SW480 [7]; SW480, 10 µM
  Cell cycle distribution G1, %: 50 ± 2%
  Cell cycle distribution G2/M, %: 16 ± 5%
  Cell cycle distribution S, %: 34 ± 5%
  Relative change in cell cycle distribution G1, %: 2%
  Relative change in cell cycle distribution G2/M, %: -3%
  Relative change in cell cycle distribution S, %: 1%
SW480 [7]; at applicable concentrations
  decrease in G1 phase: < 9%
CH1/PA‐1 [8]; CH1/PA-1, 1.25 µM
  Cell cycle distribution G1, %: 40 ± 14%
  Cell cycle distribution G2/M, %: 22 ± 7%
  Cell cycle distribution S, %: 38 ± 7%
  Relative change in cell cycle distribution G1, %: 0%
  Relative change in cell cycle distribution G2/M, %: -2%
  Relative change in cell cycle distribution S, %: 2%
CH1/PA‐1 [8]; CH1/PA-1, 2.5 µM
  Cell cycle distribution G1, %: 34 ± 5%
  Cell cycle distribution G2/M, %: 24 ± 4%
  Cell cycle distribution S, %: 42 ± 3%
  Relative change in cell cycle distribution G1, %: -6%
  Relative change in cell cycle distribution G2/M, %: 0%
  Relative change in cell cycle distribution S, %: 6%
CH1/PA‐1 [8]; CH1/PA-1, 5 µM
  Cell cycle distribution G1, %: 30 ± 10%
  Cell cycle distribution S, %: 42 ± 6%
  Relative change in cell cycle distribution G1, %: -10%
  Relative change in cell cycle distribution G2/M, %: 4%
  Relative change in cell cycle distribution S, %: 6%
CH1/PA‐1 [8]; CH1/PA‐1 cells, 2.5 μM
  decrease in G1 phase: 6%
A549 [5]
  IC50: 79 ± 5 µM
CH1/PA‐1 [6]
  IC50: 59 ± 10 µM
HCT‐116
  IC50: 62 ± 1 µM
